Columns and labels:
[1] = test system: Phaemoniella chlamydospora (81pep); assay: Germination of the spores on malt-agar medium with fungicide; assay type: cell-based; details: at 0.05 mg/1
Description: (§1) Formulation 3 was used in this experiment and was compared with two formulations 5 and 6, devoid of one of the two active ingredients but of identical composition (the quantity of active ingredient omitted is replaced with water).
(§2) The fungi on which formulations 3, 5 and 6 were tested are Phaemoniella chlamydospora (81pep), Phaeoacremonium aleophilum (LR 23), Diplodia seriata (F98-01), Neofusicoccum parvum (NpSV) and Eutypa lata.
(§3) The fungi are transferred to a malt-agar medium (15 g of malt and 20 g of agar per litre of deionized water, sterilized at 120° C. for 20 minutes) in a Petri dish for multiplication.
(§4) The conidia of Phaemoniella chlamydospora and Phaeoacremonium aleophilum are obtained from cultures of these fungi. The conidia are obtained by rinsing the colony of fungi with a few millilitres of sterile deionized water.
(§5) The suspension of conidia in deionized water is then adjusted to 100-200 conidia per μl.
(§6) The culture medium is a malt-agar medium (15 g of malt and 20 g of agar per litre of deionized water, sterilized at 120° C. for 20 minutes).
(§7) The medium containing the fungicides is prepared by diluting the formulation under investigation in deionized water, which is added to the culture medium. The mixture is then homogenized and distributed in Petri dishes with a diameter of 90 mm.
(§8) The final concentrations of each active ingredient in the medium are as follows: 0.0005, 0.005, 0.05, 0.5, 5, 50 and 500 mg/L.
(§9) 100 μl of a previously homogenized suspension of spores is deposited and spread over the surface of the culture medium.
(§10) Two repetitions are carried out for each test.
(§11) The percentage germination of the spores is evaluated relative to a control placed under the same conditions.
(§12) Two Petri dishes are incubated at 25° C. for a time required for the spores of the control dish to have germinated between 90 and 100%.
(§13) For each Petri dish, 200 spores are counted and the percentage of spores germinated is calculated.
(§14) For each concentration of fungicide, the percentage efficacy of the active ingredient is determined by the following equation: […]

[2] = test system: Phaeoacremonium aleophilum (LR 23); assay: as above; assay type: cell-based; details: at the concentrations tested (0.0005 to 500 mg/L)
Description: as §1, §2, §3, §4, §5, §6, §7, §8, §9, §10, §11, §12, §13, §14

[3] = test system: Diplodia seriata (F98-01); assay: as above; assay type: cell-based; details: at the concentrations tested (0.0005 to 500 mg/L)
Description: as §1, §2, §3
The conidia of Diplodia seriata are obtained from pycnidia that have developed in less than three weeks of culture on the malt-agar medium. The pycnidia are taken from and cultured in sterile water in such a way that they release the conidia.
(§15) The culture medium is a malt-agar medium (15 g of malt and 20 g of agar per litre of deionized water, sterilized at 120° C. for 20 minutes). […]
(§16) The percentage germination of the spores is evaluated relative to a control placed under the same conditions. […]
as §13, §14

[4] = test system: Neofusicoccum parvum (NpSV); assay: as above; assay type: cell-based
Description: as §1, §2, §3
The conidia of Neofusicoccum parvum are obtained from pycnidia that have developed on fragments of grapevines shoots.
as §6
The medium containing the fungicides is prepared by diluting the formulation under investigation in deionized water, which is added to the culture medium. […]
as §16, §13, §14

[5] = test system: Eutypa lata; assay: as above; assay type: cell-based
Description: as §1, §2, §3
The ascospores of Eutypa lata are obtained from perithecia situated on vine plants that have died from Eutypiosis. The perithecia are decapitated superficially, isolated one by one and soaked in sterile water for approximately 2 hours. The concentration of ascospores is then adjusted to 100-200 conidia per μl.
as §15, §16, §13, §14

[6] = test system: Diplodia seriata (F98-01); assay: Mycelial growth on malt-agar medium with fungicide; assay type: cell-based
Description: (§17) Formulation 3 was used in this experiment and was compared with two formulations 5 and 6, is devoid of one of the two active ingredients but of identical composition (the quantity of active ingredient omitted is replaced with water).
(§18) The fungi on which formulations 3, 5 and 6 were tested are Diplodia seriata (F98-01), Neofusicoccum parvum (NpSV), Eutypa lata (St309) and Formitiporia mediterranea (F2010-1).
as §6, §7, §8
(§19) Discs with a diameter of 6 mm, cut out with a punch, are placed in each dish in sterile conditions. Three repetitions are carried out for each test. The Petri dishes are incubated at 25° C. for a time necessary for the fungus to develop as far as 1 or 2 cm from the edges of a Petri dish.
(§20) The percentage mycelial growth is evaluated relative to a control placed under the same conditions for each concentration of fungicide, by the following equation: […]
(§21) The value of the concentration of the active ingredients required for inhibiting mycelial growth at 50% (IC50) or at 90% (IC90) is calculated from the regression straight line of the percentage efficacy as a function of the logarithm of the concentration of the fungicide.
(§22) The value of the concentration of the fungicide that is lethal for the fungus is obtained according to the following methodology; the mycelial implants that have not developed on the culture medium with fungicide are transferred to a malt-agar culture medium, without fungicide. The Petri dishes are then incubated at ambient temperature. Failure of the mycelial implant to take is noted.
(§23) The interactions between the fungicides in composition 3 are investigated by Wadley's method. IC50 and IC90 can be determined for each fungicide and for the fungicide combination from the curves plotted for each active ingredient used alone or for the combination.
(§24) IC90 and the theoretical IC90 for the combination is then calculated using the following equation:
(§25) The type and the level of the interaction F are then calculated by dividing the theoretical IC value by the experimental IC observed for the combination of fungicides (F=theoretical IC/experimental IC).
(§26) The interactions are defined thus: • Additivity: F=1, • Synergy: F>1, • Antagonism: F<1.
(§27) The efficacy of tetraconazole, cyproconazole alone or in combination with chlorothalonil or metiram zinc on mycelial growth was evaluated under the same conditions as in Example 4.
(§28) The efficacy of tebuconazole in combination with another […] antifungal, metiram zinc, was also evaluated.

[7] = test system: Eutypa lata (St309); assay: Mycelial growth on malt-agar medium with fungicide; assay type: cell-based; details: for activity on mycelial growth: Example 6
Description: as §17, §18, §6, §7, §8, §19, §20, §21, §22, §23, §24, §25, §26, §27, §28

[8] = test system: Neofusicoccum parvum (NpSV); assay: Mycelial growth on malt-agar medium with fungicide; assay type: cell-based
Description: as §17, §18, §6, §7, §8, §19, §20, §21, §22, §23, §24, §25, §26, §27, §28

[9] = test system: Formitiporia mediterranea (F2010-1); assay: Mycelial growth on malt-agar medium with fungicide; assay type: cell-based, Fomitoporia mediterranea
Description: as §17, §18, §6, §7, §8, §19, §20, §21, §22, §23, §24, §25, §26, §27, §28

[10] = test system: Phaeocremonium aleophilum; assay: Mycelial growth on malt-agar medium with fungicide (Example 6); assay type: cell-based
Description: as §6, §7, §19, §20, §21
(§29) The value of the concentration of the fungicide that is lethal for the fungus is obtained according to the following methodology; the mycelial implants that have not developed on the culture medium with fungicide are transferred to a malt-agar culture medium, without fungicide. The Petri dishes are then incubated at ambient temperature. Failure of the mycelial implant to take is noted. […]
as §27, §28

[11] = test system: Phaeomoniella chlamydospora; assay: as above; assay type: cell-based
Description: as §6, §7, §19, §20, §21, §29, §27, §28

[12] = test system: Neonectria galligena (Cylindrocarpon heteronema); assay: Growth inhibition by laser nephelometry in 96-well microplates; assay type: cell-based
Description: (§30) For multicellular organisms such as fungi, the nephelometry method is used on sporulating strains (Joubert et al., Laser nephelometry applied in an automated microplate system to study filamentous fungus growth, Biotechniques 48: 399-404, 2010).
(§31) The strains are multiplied on suitable agar media in an oven at 20° C., for 8 days before their use, so as to be in their exponential growth phase. The fungal suspension is prepared extemporaneously at a concentration of […] for Pc and […] for Ch.
(§32) 100 μl of the suspension is used for the tests.
(§33) The tests are carried out in 96-well microplates. Doses of 0 ppm, 0.1 ppm, 0.3 ppm, 1 ppm, 3 ppm, 10 ppm, 30 ppm, 100 ppm, 300 ppm, 1000 ppm and 3000 ppm (final concentration of the substance) will be tested per product.
(§34) Three technical repetitions are carried out per modality (target species/formulation).
(§35) Controls are added per target pathogenic agent: one positive growth control and the products alone at the highest doses.
(§36) Nephelometry measurements (RNU) are carried out for 60 h, every 30 minutes and the growth values are measured to study the growth inhibition effect relative to the fungal controls.

[13] = test system: Phytophthora cactorum; assay: as above; assay type: cell-based; details: nephelometry for 60 h
Description: as §30, §31, §32, §33, §34, §35, §36

[14] = Example 5, at the concentrations tested

## N#Cc1c(Cl)c(Cl)c(Cl)c(C#N)c1Cl [chlorothalonil]
[1]
  inhibition of germination of the spores: does not inhibit germination of the spores
[2]
  inhibition of germination of the spores: does not inhibit germination of the spores
[3]
  inhibition of germination of the spores: does not inhibit germination of the spores
[4]
  concentration from which germination of the spores is inhibited: ≥ 5 mg/L
[5]
  concentration that inhibits germination of the spores: 5 mg/1
[6]; Example 5
  concentration from which mycelial development is strongly inhibited: ≥ 500 mg/L
[6]; [14]
  fungicide (lethal) activity: does not display fungicide activity
[6]; Example 6
  activity on mycelial growth: low activity
[7]; Example 5
  concentration from which mycelial development is strongly inhibited: ≥ 50 mg/L
[7]; Example 5, at the concentrations tested (0.0005 to 500 mg/L)
  fungicide (lethal) activity: does not display fungicide activity
[7]
  activity on mycelial growth: do not inhibit the mycelial growth of Eutypa lata completely
[7]; listed as Chlorothalonil
  activity on mycelial growth: low activity
[8]; Example 5
  concentration at which mycelial development is strongly inhibited: 500 mg/L
[8]; [14]
  fungicide (lethal) activity: does not display fungicide activity
[8]; Example 6
  activity on mycelial growth: moderate activity
[9]; Example 5
  concentration from which mycelial development is strongly inhibited: ≥ 5 mg/L
[9]; at the concentrations tested
  fungicide (lethal) activity: does not display fungicide activity
[10]
  concentration at which mycelial growth is inhibited completely: 500 mg/L
[11]
  concentration at which mycelial growth is inhibited completely: 500 mg/L
[12]
  lethal dose: ≥ 300 ppm
[12]; growth, nephelometry for 60 h
  IC50: approximately 100 ppm
  IC90: around 250 ppm
[13]
  50% inhibitory concentration (IC50): below 10 ppm
  90% inhibitory concentration (IC90): 1000 ppm

Reference: patent publication US20180160679A1, “PROCESS FOR TREATING PERENNIAL PLANT WOOD DISEASES” (priority 2015, published 2018)
